{"source": "paper PMC7614683", "about": "“A small molecule PI3Kα activator for cardioprotection and neuroregeneration” (Nature, 2023)", "molecular_target": "T1, PI3Kα G106V mutant (Homo sapiens, UniProt P42336, G106V)", "T1 construct": "Full-length human p110α was expressed either in a complex with full-length human p85α (for HTS, biochemistry and HDX-MS); 6xHis tag followed by TEV protease site (N); host or cells: Sf9, baculovirus", "T1 sequence (P42336 whole entry G106V)": "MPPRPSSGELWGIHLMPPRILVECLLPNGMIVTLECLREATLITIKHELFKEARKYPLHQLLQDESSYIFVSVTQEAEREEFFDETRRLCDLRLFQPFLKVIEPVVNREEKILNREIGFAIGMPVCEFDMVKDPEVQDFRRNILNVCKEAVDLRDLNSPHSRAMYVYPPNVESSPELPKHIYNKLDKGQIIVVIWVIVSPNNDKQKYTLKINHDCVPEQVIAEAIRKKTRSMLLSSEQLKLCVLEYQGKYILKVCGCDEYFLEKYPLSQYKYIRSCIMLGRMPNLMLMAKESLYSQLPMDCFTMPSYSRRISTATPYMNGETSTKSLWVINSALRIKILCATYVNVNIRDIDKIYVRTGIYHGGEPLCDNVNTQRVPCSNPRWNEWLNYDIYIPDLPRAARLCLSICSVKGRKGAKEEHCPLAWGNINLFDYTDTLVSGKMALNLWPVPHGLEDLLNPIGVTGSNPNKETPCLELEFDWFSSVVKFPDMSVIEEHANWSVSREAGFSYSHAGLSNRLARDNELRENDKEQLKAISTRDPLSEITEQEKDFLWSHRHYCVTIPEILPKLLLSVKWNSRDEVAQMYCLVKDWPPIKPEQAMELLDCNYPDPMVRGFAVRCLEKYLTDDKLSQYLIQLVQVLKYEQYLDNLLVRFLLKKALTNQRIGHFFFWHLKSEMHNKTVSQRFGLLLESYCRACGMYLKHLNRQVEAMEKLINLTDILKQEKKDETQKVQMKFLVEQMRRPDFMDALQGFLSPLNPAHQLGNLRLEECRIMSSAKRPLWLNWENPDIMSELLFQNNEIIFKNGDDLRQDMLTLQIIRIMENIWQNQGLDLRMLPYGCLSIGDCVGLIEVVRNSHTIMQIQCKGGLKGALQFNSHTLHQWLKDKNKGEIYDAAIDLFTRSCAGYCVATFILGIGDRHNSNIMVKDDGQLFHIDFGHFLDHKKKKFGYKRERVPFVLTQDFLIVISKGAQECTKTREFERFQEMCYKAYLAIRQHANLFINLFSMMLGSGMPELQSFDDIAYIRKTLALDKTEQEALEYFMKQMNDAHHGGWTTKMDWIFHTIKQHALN", "T1 sequence (P27986 whole entry partner)": "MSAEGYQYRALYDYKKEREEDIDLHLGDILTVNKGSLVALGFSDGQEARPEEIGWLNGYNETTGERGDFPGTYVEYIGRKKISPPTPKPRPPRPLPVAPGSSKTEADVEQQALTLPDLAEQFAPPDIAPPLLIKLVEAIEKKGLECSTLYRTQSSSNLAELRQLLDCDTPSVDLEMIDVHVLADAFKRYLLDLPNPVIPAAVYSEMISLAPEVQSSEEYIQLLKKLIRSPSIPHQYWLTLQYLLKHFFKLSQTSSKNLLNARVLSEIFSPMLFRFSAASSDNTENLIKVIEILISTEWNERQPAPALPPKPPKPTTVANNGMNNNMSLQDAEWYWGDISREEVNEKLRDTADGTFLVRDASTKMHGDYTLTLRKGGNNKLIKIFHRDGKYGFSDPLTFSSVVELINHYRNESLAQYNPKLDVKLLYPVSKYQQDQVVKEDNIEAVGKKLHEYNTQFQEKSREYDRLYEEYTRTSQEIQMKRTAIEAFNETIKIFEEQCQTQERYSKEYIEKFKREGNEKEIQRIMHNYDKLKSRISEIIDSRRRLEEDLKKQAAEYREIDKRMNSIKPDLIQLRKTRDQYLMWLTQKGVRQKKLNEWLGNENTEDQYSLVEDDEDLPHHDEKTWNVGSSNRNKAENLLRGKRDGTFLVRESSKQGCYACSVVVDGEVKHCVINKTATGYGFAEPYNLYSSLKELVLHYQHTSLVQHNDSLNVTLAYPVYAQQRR", "assay": "ADP-Glo catalytic activity, oncogenic mutant G106V", "assay_type": "biochemical", "method": "Expression and purification of wild-type p110α (Cambridge MRC Laboratory for Molecular Biology (LMB-MRC) plasmid number OP831) in a complex with full-length p85α (LMB-MRC plasmid OP809) was performed as described. The oncogenic mutants G106V (LMB-MRC plasmid JB35), N345K (LMB-MRC plasmid OP661) and E545K (LMB-MRC plasmid OP663) were also purified using this protocol. Briefly, 10 litres of Spodoptera frugiperda (Sf9) cell culture at a density of 1.0 x 10^6 cells/ml were co-infected with a p85α-encoding virus [LMB-MRC plasmid OP809]. and a virus encoding p110α with an N-terminal 6xHis tag followed by a tobacco etch virus (TEV) protease site [LMB-MRC plasmid OP831]. After a 48 h infection at 27°C, cells were harvested and washed with PBS. […]\nFor characterisation of the effects of 1938 on in vitro PI3K enzymology, all reactions were performed at room temperature with 384 white-polystyrene plates (Corning #3574). […] Data was expressed as velocity (nmol of ADP generated/nmol of enzyme/sec). […] Luminescence was read using a PHERAstar® plate reader with software version 5.41, and analyses were performed using GraphPad Prism 8/9."}
{"smiles": "CCN1CCN(c2ccc(Nc3cc(Nc4cccc5c4N(C(C)=O)CC5)ccn3)cc2)CC1", "note": "[Compound 1938]", "values": [{"measurement": "activation of G106V mutant", "result": "levels comparable with stimulation with pY"}]}
